Measured values from patent US9238619B2, “Phenalkylamine derivatives, pharmaceutical compositions containing them, and their use in therapy” (AbbVie Deutschland GmbH & Co. KG, priority 2010, dated 2016).
Where a name gives a salt, the structure may show the parent alone.

Target: human GlyT1c transporter (Homo sapiens (Human), UniProt P48067)
Test: Radioligand binding assays using recombinant CHO cell membranes expressing human GlyT1
Conditions: read-out: radioligand binding Kiapp
Experimental: Radioligand binding to human GlyT1c transporter-expressing membranes was determined as described in Mezler et al., Molecular Pharmacology 74:1705-1715, 2008.

human GlyT1c transporter, sequence (P48067 whole entry): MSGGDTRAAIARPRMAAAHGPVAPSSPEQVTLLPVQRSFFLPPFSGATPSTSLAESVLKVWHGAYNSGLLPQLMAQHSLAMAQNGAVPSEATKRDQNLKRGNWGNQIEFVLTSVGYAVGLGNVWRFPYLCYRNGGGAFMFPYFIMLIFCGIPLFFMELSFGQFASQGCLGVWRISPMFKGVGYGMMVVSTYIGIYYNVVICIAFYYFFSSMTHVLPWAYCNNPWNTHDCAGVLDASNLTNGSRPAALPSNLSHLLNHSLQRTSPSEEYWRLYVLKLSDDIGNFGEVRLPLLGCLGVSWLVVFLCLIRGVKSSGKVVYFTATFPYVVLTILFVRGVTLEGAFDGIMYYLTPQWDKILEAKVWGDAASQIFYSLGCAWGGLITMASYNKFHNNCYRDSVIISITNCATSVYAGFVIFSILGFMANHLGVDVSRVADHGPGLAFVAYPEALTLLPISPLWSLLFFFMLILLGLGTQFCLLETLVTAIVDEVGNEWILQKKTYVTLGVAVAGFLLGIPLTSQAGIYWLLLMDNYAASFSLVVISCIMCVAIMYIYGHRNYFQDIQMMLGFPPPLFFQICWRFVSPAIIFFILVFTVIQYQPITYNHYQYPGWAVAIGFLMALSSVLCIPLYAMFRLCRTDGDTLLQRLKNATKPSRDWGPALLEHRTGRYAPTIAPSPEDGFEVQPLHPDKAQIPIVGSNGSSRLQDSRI

| Compound | Ki [µM] |
| --- | --- |
| CCCS(=O)(=O)N(C)Cc1cccc(C(CNC(=O)OC(C)(C)C)C2(c3ccc(Cl)cc3)CCC2)c1 (stereo not drawn) [Example 40, tert-Butyl {2-[1-(4-chlorophenyl)cyclobutyl]-2-(3-{[methyl(propylsulfonyl)amino]methyl}phenyl)ethyl}carbamate] | ≤ 10 |
| CN(Cc1cccc(C(CNC(=O)OC(C)(C)C)C2(c3ccc(Cl)cc3)CCC2)c1)S(=O)(=O)c1cn(C)cn1 (stereo not drawn) [Example 41, tert-Butyl {2-[1-(4-chlorophenyl)cyclobutyl]-2-[3-({methyl[(1-methyl-1H-imidazol-4-yl)sulfonyl]amino}methyl)phenyl]ethyl}carbamate] | ≤ 10 |
| CCCS(=O)(=O)N(C)Cc1cccc(C(CN)C2(c3ccc(Cl)cc3)CCC2)c1 (stereo not drawn) [Example 42, N-(3-{2-Amino-1-[1-(4-chlorophenyl)cyclobutyl]ethyl}benzyl)-N-methylpropane-1-sulfonamide hydrochloride] | ≤ 10 |
| CN(Cc1cccc(C(CN)C2(c3ccc(Cl)cc3)CCC2)c1)S(=O)(=O)CCCF (stereo not drawn) [Example 43, N-(3-{2-Amino-1-[1-(4-chlorophenyl)cyclobutyl]ethyl}benzyl)-3-fluoro-N-methylpropane-1-sulfonamide hydrochloride] | ≤ 10 |
| CN(Cc1cccc(C(CN)C2(c3ccc(Cl)cc3)CCC2)c1)S(=O)(=O)c1cn(C)cn1 (stereo not drawn) [Example 44, N-(3-{2-Amino-1-[1-(4-chlorophenyl)cyclobutyl]ethyl}benzyl)-N,1-dimethyl-1H-imidazole-4-sulfonamide hydrochloride] | ≤ 10 |
| CN(Cc1cccc(C(CN)C2(c3ccc(Cl)cc3)CCC2)c1)S(=O)(=O)c1cnn(C)c1 (stereo not drawn) [Example 45, N-(3-{2-Amino-1-[1-(4-chlorophenyl)cyclobutyl]ethyl}benzyl)-N,1-dimethyl-1H-pyrazole-4-sulfonamide hydrochloride] | ≤ 10 |
| CCOC(=O)N1CC(Cc2ccccc2)(c2cccc(OCCNS(=O)(=O)c3cnn(C)c3)c2)C1 [Example 46, 3-Benzyl-3-{3-[2-(1-methyl-1H-pyrazole-4-sulfonylamino)-ethoxy]-phenyl}-azetidine-1-carboxylic acid ethyl ester] | ≤ 10 |
| CCOC(=O)N1CC(Cc2ccccc2)(c2cccc(OCCNS(=O)(=O)c3cn(C)cn3)c2)C1 [Example 47, 3-Benzyl-3-{3-[2-(1-methyl-1H-imidazole-4-sulfonylamino)-ethoxy]-phenyl}-azetidine-1-carboxylic acid ethyl ester] | ≤ 1 |
| CCOC(=O)N1CC(Cc2ccccc2)(c2cccc(OCCNS(=O)(=O)CC3CC3)c2)C1 [Example 48, 3-Benzyl-3-[3-(2-cyclopropylmethanesulfonylamino-ethoxy)-phenyl]-azetidine-1-carboxylic acid ethyl ester] | ≤ 1 |
| O=S(=O)(CC1CC1)NCCOc1cccc(C2(Cc3ccccc3)CNC2)c1 [Example 49, N-{2-[3-(3-Benzyl-azetidin-3-yl)-phenoxy]-ethyl}-C-cyclopropyl-methane sulfonamide] | ≤ 1 |
| Cn1cc(S(=O)(=O)NCCOc2cccc(C3(Cc4ccccc4)CNC3)c2)cn1 [Example 50, 1-Methyl-1H-pyrazole-4-sulfonic acid {2-[3-(3-benzyl-azetidin-3-yl)-phenoxy]-ethyl}-amide] | ≤ 0.1 |
| Cn1cnc(S(=O)(=O)NCCOc2cccc(C3(Cc4ccccc4)CNC3)c2)c1 [Example 51, 1-Methyl-1H-imidazole-4-sulfonic acid {2-[3-(3-benzyl-azetidin-3-yl)phenoxy]-ethyl}-amide] | ≤ 0.1 |
| CN1CC(Cc2ccccc2)(c2ccc(F)c(OCCNS(=O)(=O)c3cn(C)cn3)c2)C1 [Example 52, 1-Methyl-1H-imidazole-4-sulfonic acid {2-[5-(3-benzyl-1-methyl-azetidin-3-yl)-2-fluoro-phenoxy]-ethyl}-amide] | ≤ 0.1 |
| CN1CC(Cc2ccccc2)(c2ccc(F)c(OCCN(C)S(=O)(=O)c3cn(C)cn3)c2)C1 [Example 53, 1-Methyl-1H-imidazole-4-sulfonic acid {2-[5-(3-benzyl-1-methyl-azetidin-3-yl)-2-fluoro-phenoxy]-ethyl}-methyl-amide] | ≤ 1 |
| Cn1cnc(S(=O)(=O)NCCOc2cccc(C3(Cc4ccccc4)CN(CC(F)(F)F)C3)c2)c1 [Example 54, 1-Methyl-1H-imidazole-4-sulfonic acid (2-{3-[3-benzyl-1-(2,2,2-trifluoro-ethyl)azetidin-3-yl]-phenoxy}-ethyl)-amide] | ≤ 1 |
| Cn1cnc(S(=O)(=O)NCCOc2cccc(C3(Cc4ccccc4)CN(CC(F)F)C3)c2)c1 [Example 55, 1-Methyl-1H-imidazole-4-sulfonic acid (2-{3-[3-benzyl-1-(2,2-difluoro-ethyl)azetidin-3-yl]-phenoxy}-ethyl)-amide] | ≤ 1 |
| Cn1cnc(S(=O)(=O)NCCOc2cccc(C3(Cc4ccccc4)CNC(=O)C3)c2)c1 (stereo not drawn) [Example 56, 1-Methyl-1H-imidazole-4-sulfonic acid {2-[3-(3-benzyl-5-oxo-pyrrolidin-3-yl)-phenoxy]-ethyl}-amide] | ≤ 1 |
| O=C1CC(Cc2ccccc2)(c2cccc(OCCNS(=O)(=O)CC3CC3)c2)CN1 (stereo not drawn) [Example 57, N-{2-[3-(3-Benzyl-5-oxo-pyrrolidin-3-yl)-phenoxy]-ethyl}-C-cyclopropyl-methanesulfonamide] | ≤ 10 |

| Compound | Ki [µM] |
| --- | --- |
| Cn1cc(S(=O)(=O)NCCOc2cccc(C3(Cc4ccccc4)CNC(=O)C3)c2)cn1 (stereo not drawn) [Example 58, 1-Methyl-1H-pyrazole-4-sulfonic acid {2-[3-(3-benzyl-5-oxo-pyrrolidin-3-yl)phenoxy]-ethyl}-amide] | ≤ 1 |
| O=S(=O)(CC1CC1)NCCOc1cccc(C2(Cc3ccccc3)CCNC2)c1 (stereo not drawn) [Example 59, N-{2-[3-(3-Benzyl-pyrrolidin-3-yl)-phenoxy]-ethyl}-C-cyclopropyl-methanesulfonamide] | ≤ 0.1 |
| Cn1cc(S(=O)(=O)NCCOc2cccc(C3(Cc4ccccc4)CCNC3)c2)cn1 (stereo not drawn) [Example 60, 1-Methyl-1H-pyrazole-4-sulfonic acid {2-[3-(3-benzyl-pyrrolidin-3-yl)phenoxy]-ethyl}-amide] | ≤ 0.1 |
| Cn1cnc(S(=O)(=O)NCCOc2cccc(C3(Cc4ccccc4)CCNC3)c2)c1 (stereo not drawn) [Example 61, 1-Methyl-1H-imidazole-4-sulfonic acid {2-[3-(3-benzyl-pyrrolidin-3-yl)phenoxy]-ethyl}-amide] | ≤ 0.1 |
| CN1CCCC(Cc2ccccc2)(c2cccc(OCCNS(=O)(=O)c3cn(C)cn3)c2)C1 (stereo not drawn) [Example 62, 1-Methyl-1H-imidazole-4-sulfonic acid {2-[3-(3-benzyl-1-methyl-piperidin-3-yl)-phenoxy]-ethyl}-amide] | ≤ 0.1 |
| CN1CCCC(Cc2ccccc2)(c2cccc(OCCNS(=O)(=O)c3cnn(C)c3)c2)C1 (stereo not drawn) [Example 63, 1-Methyl-1H-pyrazole-4-sulfonic acid {2-[3-(3-benzyl-1-methyl-piperidin-3-yl)phenoxy]-ethyl}-amide] | ≤ 0.1 |
| CN1CCCC(Cc2ccccc2)(c2cccc(OCCNS(=O)(=O)CC3CC3)c2)C1 (stereo not drawn) [Example 64, N-{2-[3-(3-Benzyl-1-methyl-piperidin-3-yl)-phenoxy]-ethyl}-C-cyclopropyl-methanesulfonamide] | ≤ 10 |
| Cn1cc(S(=O)(=O)NCc2cccc(C3(Cc4ccccc4)CNC(=O)C3)c2)cn1 (stereo not drawn) [Example 66, 1-Methyl-1H-pyrazole-4-sulfonic acid 3-(3-benzyl-5-oxo-pyrrolidin-3-yl)benzylamide] | ≤ 10 |
| Cn1cc(S(=O)(=O)NCc2cccc(C3(Cc4ccccc4)CCNC3)c2)cn1 (stereo not drawn) [Example 67, 1-Methyl-1H-pyrazole-4-sulfonic acid 3-(3-benzyl-pyrrolidin-3-yl)benzylamide] | ≤ 0.1 |
| O=S(=O)(CC1CC1)NCc1cccc(C2(Cc3ccccc3)CCNC2)c1 (stereo not drawn) [Example 68, N-[3-(3-Benzyl-pyrrolidin-3-yl)-benzyl]-C-cyclopropyl-methanesulfonamide] | ≤ 1 |
| CN1CCC(Cc2ccccc2)(c2cccc(CNS(=O)(=O)c3cnn(C)c3)c2)C1 (stereo not drawn) [Example 69, 1-Methyl-1H-pyrazole-4-sulfonic acid 3-(3-benzyl-1-methyl-pyrrolidin-3-yl)-benzylamide] | ≤ 1 |
| CN1CCC(Cc2ccccc2)(c2cccc(OCCNS(=O)(=O)c3cn(C)cn3)c2)C1 (stereo not drawn) [Example 70, 1-Methyl-1H-imidazole-4-sulfonic acid {2-[3-(3-benzyl-1-methyl-pyrrolidin-3-yl)-phenoxy]-ethyl}-amide] | ≤ 0.1 |
| Cn1cnc(S(=O)(=O)NCCOc2cccc(C3(Cc4ccccc4)CCN(C(=O)C(F)F)C3)c2)c1 (stereo not drawn) [Example 71, 1-Methyl-1H-imidazole-4-sulfonic acid (2-{3-[3-benzyl-1-(2,2-difluoro-acetyl)pyrrolidin-3-yl]-phenoxy}-ethyl)-amide] | ≤ 1 |
| Cn1cnc(S(=O)(=O)NCCOc2cccc(C3(Cc4ccccc4)CN(CCF)C3)c2)c1 [Example 72, 1-Methyl-1H-imidazole-4-sulfonic acid (2-{3-[3-benzyl-1-(2-fluoro-ethyl)azetidin-3-yl]-phenoxy}-ethyl)-amide] | ≤ 0.1 |
| COCCN1CC(Cc2ccccc2)(c2cccc(OCCNS(=O)(=O)c3cn(C)cn3)c2)C1 [Example 73, 1-Methyl-1H-imidazole-4-sulfonic acid (2-{3-[3-benzyl-1-(2-methoxy-ethyl)azetidin-3-yl]-phenoxy}-ethyl)-amide] | ≤ 0.1 |
| CN1CCC(Cc2ccccc2)(c2cccc(OCCN(C)S(=O)(=O)c3cn(C)cn3)c2)C1 (stereo not drawn) [Example 74, 1-Methyl-1H-imidazole-4-sulfonic acid {2-[3-(3-benzyl-1-methyl-pyrrolidin-3-yl)-phenoxy]-ethyl}-methyl-amide] | ≤ 1 |
| Cn1cnc(S(=O)(=O)NCCOc2cccc(C3(Cc4ccccc4)CCN(CCF)C3)c2)c1 (stereo not drawn) [Example 75] | ≤ 0.1 |
| Cn1cnc(S(=O)(=O)NCCOc2cccc(C3(Cc4ccccc4)CCN(CC(C)(C)C)C3)c2)c1 (stereo not drawn) [Example 76, 1-Methyl-1H-imidazole-4-sulfonic acid (2-{3-[3-benzyl-1-(2,2-dimethylpropyl)-pyrrolidin-3-yl]-phenoxy}-ethyl)-amide] | ≤ 0.1 |
